Data taken from patent publication US6936585B2, “Corticotropin releasing factor 2 receptor agonists” (priority 2002, dated 2005).
Ends that are not written are not given here. Peptide text beside a SMILES is read from it.

Columns and labels:
[1] = target: T1, CRF2R (Homo sapiens, UniProt Q13324); experiment: CRF2R agonist activation (EC50 / Emax), called comparative CRF binding; format: cell-based; details: for Emax: read-out: CRF2R Emax; for EC50: read-out: CRF2R EC50
T1 sequence (Q13324 1-411): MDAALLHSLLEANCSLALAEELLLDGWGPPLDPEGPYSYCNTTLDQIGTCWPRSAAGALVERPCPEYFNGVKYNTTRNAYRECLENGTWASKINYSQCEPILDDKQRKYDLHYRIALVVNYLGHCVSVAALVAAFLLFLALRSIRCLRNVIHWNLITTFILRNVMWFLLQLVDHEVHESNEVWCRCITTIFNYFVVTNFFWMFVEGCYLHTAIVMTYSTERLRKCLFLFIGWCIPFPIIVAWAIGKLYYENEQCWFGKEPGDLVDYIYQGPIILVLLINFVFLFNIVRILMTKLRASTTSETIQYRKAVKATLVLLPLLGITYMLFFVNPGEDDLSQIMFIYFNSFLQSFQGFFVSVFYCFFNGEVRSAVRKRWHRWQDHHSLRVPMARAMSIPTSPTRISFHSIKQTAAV
Summary of the method: (§1)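 Receptor-expressing cells are contacted with test peptide or the vehicle it is dissolved in. Lysates are then assayed for cAMP, or expression of a CRE-coupled reporter is quantitated. Engineered cells carrying receptor-G-protein fusions may replace full-length receptors.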

[2] = target: T2, CRF1R (Homo sapiens, UniProt P34998); experiment: CRF1R agonist activation (EC50 / Emax), called comparative CRF binding; format: cell-based; details: for Emax: read-out: CRF1R Emax; for EC50: read-out: CRF1R EC50
T2 sequence (P34998 24-415): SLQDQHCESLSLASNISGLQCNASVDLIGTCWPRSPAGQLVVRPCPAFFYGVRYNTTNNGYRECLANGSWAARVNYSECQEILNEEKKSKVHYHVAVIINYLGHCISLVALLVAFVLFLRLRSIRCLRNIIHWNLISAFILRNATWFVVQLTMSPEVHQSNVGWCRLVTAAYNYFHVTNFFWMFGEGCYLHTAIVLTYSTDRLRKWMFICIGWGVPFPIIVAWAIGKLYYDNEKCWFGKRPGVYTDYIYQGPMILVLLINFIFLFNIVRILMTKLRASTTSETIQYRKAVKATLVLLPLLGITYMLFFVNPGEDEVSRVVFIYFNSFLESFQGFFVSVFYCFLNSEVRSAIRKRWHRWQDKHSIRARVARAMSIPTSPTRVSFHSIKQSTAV
Summary of the method: as §1

Compound | Emax [1] | Emax [2] | EC50 [1] | EC50 [2]
CC[C@H](C)[C@H](N)C(=O)N[C@H](C(=O)N[C@@H](CC(C)C)C(=O)N[C@@H](CO)C(=O)N[C@@H](CC(C)C)C(=O)N[C@@H](CC(=O)O)C(=O)N[C@H](C(=O)N1CCC[C@H]1C(=O)N[C@H](C(=O)NCC(=O)N[C@@H](CC(C)C)C(=O)N[C@@H](CC(C)C)C(=O)N[C@@H](CCC(N)=O)C(=O)N[C@H](C(=O)N[C@@H](CC(C)C)C(=O)N[C@@H](CC(C)C)C(=O)N[C@@H](CCC(=O)O)C(=O)N[C@@H](CCSC)C(=O)N[C@H](C(=O)N[C@@H](CCCCN)C(=O)N[C@@H](C)C(=O)N[C@@H](CC(=O)O)C(=O)N[C@@H](CCC(N)=O)C(=O)N[C@@H](CC(C)C)C(=O)N[C@@H](C)C(=O)N[C@@H](CCC(N)=O)C(=O)N[C@@H](CCC(N)=O)C(=O)N[C@@H](C)C(=O)N[C@@H](Cc1c[nH]cn1)C(=O)N[C@@H](CO)C(=O)N[C@@H](CC(N)=O)C(=O)N[C@@H](CCCNC(=N)N)C(=O)N[C@@H](CCCCN)C(=O)N[C@@H](CC(C)C)C(=O)N[C@@H](CC(C)C)C(=O)N[C@@H](CC(=O)O)C(=O)N[C@H](C(=O)N[C@@H](C)C(N)=O)[C@@H](C)CC)[C@@H](C)O)[C@@H](C)CC)[C@@H](C)CC)C(C)C)C(C)C [compound 155] (H-IVLSLDVPIGLLQILLEMTKADQLAQQAHSNRKLLDIA-NH2; N-terminus assumed) | 94% | 16% | – | –
NDDPPISIDLPFYLLRNMIEMARIENEREQAGLNAKYLAEV-NH2 [compound 261] | 95.3% | 100% | – | –
SQEPPISLDLTFHLLREVLEQARARAAREQATTNARILARV-NH2 [compound 157] | 60.6% | 91% | – | –
CC[C@H](C)[C@H](N)C(=O)N[C@H](C(=O)N[C@@H](CC(C)C)C(=O)N[C@@H](CO)C(=O)N[C@@H](CC(C)C)C(=O)N[C@@H](CC(=O)O)C(=O)N[C@H](C(=O)N1CCC[C@H]1C(=O)N[C@H](C(=O)NCC(=O)N[C@@H](CC(C)C)C(=O)N[C@@H](CC(C)C)C(=O)N[C@@H](CCC(N)=O)C(=O)N[C@H](C(=O)N[C@@H](CC(C)C)C(=O)N[C@@H](CC(C)C)C(=O)N[C@@H](CCC(=O)O)C(=O)N[C@@H](CCC(N)=O)C(=O)N[C@@H](CCC(=O)O)C(=O)N[C@@H](CCCNC(=N)N)C(=O)N[C@@H](C)C(=O)N[C@@H](CCCNC(=N)N)C(=O)N[C@@H](C)C(=O)N[C@@H](C)C(=O)N[C@@H](CCCNC(=N)N)C(=O)N[C@@H](CCC(=O)O)C(=O)N[C@@H](CCC(N)=O)C(=O)N[C@@H](C)C(=O)N[C@H](C(=O)N[C@H](C(=O)N[C@@H](CC(N)=O)C(=O)N[C@@H](C)C(=O)N[C@@H](CCCNC(=N)N)C(=O)N[C@H](C(=O)N[C@@H](CC(C)C)C(=O)N[C@@H](C)C(=O)N[C@@H](CCCNC(=N)N)C(=O)N[C@H](C(N)=O)C(C)C)[C@@H](C)CC)[C@@H](C)O)[C@@H](C)O)[C@@H](C)CC)[C@@H](C)CC)C(C)C)C(C)C [compound 119] (H-IVLSLDVPIGLLQILLEQERARAAREQATTNARILARV-NH2; N-terminus assumed) | 95% | 3% | 3.57 nM | > 100 nM
CC[C@H](C)[C@H](NC(=O)[C@H](C)NC(=O)[C@H](CC(N)=O)NC(=O)[C@H](CCC(N)=O)NC(=O)[C@H](CCC(=O)O)NC(=O)[C@H](C)NC(=O)[C@H](CCCNC(=N)N)NC(=O)[C@H](CCC(=O)O)NC(=O)[C@H](CCCNC(=N)N)NC(=O)[C@H](CCC(N)=O)NC(=O)[C@H](CO)NC(=O)[C@H](CCC(N)=O)NC(=O)[C@@H](NC(=O)[C@H](CCCCN)NC(=O)[C@H](CCC(=O)O)NC(=O)[C@H](CC(C)C)NC(=O)[C@H](CCC(=O)O)NC(=O)[C@H](CC(C)C)NC(=O)[C@H](CC(C)C)NC(=O)[C@@H](NC(=O)[C@H](CCCNC(=N)N)NC(=O)[C@H](CC(C)C)NC(=O)[C@H](CC(C)C)NC(=O)[C@H](CC(C)C)NC(=O)[C@H](CC(C)C)NC(=O)[C@@H]1CCCN1C(=O)[C@H](CC(C)C)NC(=O)[C@H](CC(=O)O)NC(=O)[C@@H](NC(=O)[C@H](CO)NC(=O)[C@H](CC(C)C)NC(=O)[C@H](CO)NC(=O)[C@@H]1CCCN1C(=O)[C@H](CC(N)=O)NC(=O)[C@@H](N)CC(=O)O)[C@@H](C)CC)[C@@H](C)O)[C@@H](C)O)C(=O)N[C@H](C(=O)N[C@@H](Cc1ccccc1)C(=O)N[C@@H](C)C(=O)N[C@@H](CO)C(=O)N[C@H](C(N)=O)C(C)C)[C@@H](C)CC [compound 346] (H-DNPSLSIDLPLLLLRTLLELEKTQSQRERAEQNAIIFASV-NH2; N-terminus assumed) | 97.8% | 59% | – | –
CC[C@H](C)[C@H](NC(=O)[C@H](C)NC(=O)[C@H](CC(N)=O)NC(=O)[C@H](CCC(N)=O)NC(=O)[C@H](CCC(=O)O)NC(=O)[C@H](C)NC(=O)[C@H](CCCNC(=N)N)NC(=O)[C@H](CCC(=O)O)NC(=O)[C@H](CCCNC(=N)N)NC(=O)[C@H](CCC(N)=O)NC(=O)[C@H](CO)NC(=O)[C@H](CCC(N)=O)NC(=O)[C@@H](NC(=O)[C@H](CCCNC(=N)N)NC(=O)[C@H](C)NC(=O)[C@H](CC(C)C)NC(=O)[C@H](CCC(=O)O)NC(=O)[C@H](CC(C)C)NC(=O)[C@H](CC(C)C)NC(=O)[C@@H](NC(=O)[C@H](CCCNC(=N)N)NC(=O)[C@H](CC(C)C)NC(=O)[C@H](CC(C)C)NC(=O)[C@H](Cc1ccccc1)NC(=O)[C@H](CC(C)C)NC(=O)[C@@H]1CCCN1C(=O)[C@H](CC(C)C)NC(=O)[C@H](CC(=O)O)NC(=O)[C@@H](NC(=O)[C@H](CO)NC(=O)[C@H](CC(C)C)NC(=O)[C@H](CO)NC(=O)[C@@H]1CCCN1C(=O)[C@H](CC(N)=O)NC(=O)[C@@H](N)CC(=O)O)[C@@H](C)CC)[C@@H](C)O)[C@@H](C)O)C(=O)N[C@H](C(=O)N[C@@H](Cc1ccccc1)C(=O)N[C@@H](C)C(=O)N[C@@H](CO)C(=O)N[C@H](C(N)=O)C(C)C)[C@@H](C)CC [compound 178] (H-DNPSLSIDLPLFLLRTLLELARTQSQRERAEQNAIIFASV-NH2; N-terminus assumed) | 96.5% | 55.7% | – | –
CC[C@H](C)[C@H](N)C(=O)N[C@H](C(=O)N[C@@H](CC(C)C)C(=O)N[C@@H](CO)C(=O)N[C@@H](CC(C)C)C(=O)N[C@@H](CC(=O)O)C(=O)N[C@H](C(=O)N1CCC[C@H]1C(=O)N[C@H](C(=O)NCC(=O)N[C@@H](CC(C)C)C(=O)N[C@@H](CC(C)C)C(=O)N[C@@H](CCC(N)=O)C(=O)N[C@@H](CCCCN)C(=O)N[C@H](C(=O)N[C@H](C(=O)N[C@@H](CCC(=O)O)C(=O)N[C@H](C(=O)N[C@@H](CCC(=O)O)C(=O)N[C@@H](CCCCN)C(=O)N[C@@H](CCC(N)=O)C(=O)N[C@@H](CCC(=O)O)C(=O)N[C@@H](CCCCN)C(=O)N[C@@H](CCC(=O)O)C(=O)N[C@@H](CCCCN)C(=O)N[C@@H](CCC(N)=O)C(=O)N[C@@H](CCC(N)=O)C(=O)N[C@@H](C)C(=O)N[C@H](C(=O)N[C@H](C(=O)N[C@@H](CC(N)=O)C(=O)N[C@@H](C)C(=O)N[C@@H](CCCNC(=N)N)C(=O)N[C@H](C(=O)N[C@@H](CC(C)C)C(=O)N[C@@H](C)C(=O)N[C@@H](CCCNC(=N)N)C(=O)N[C@H](C(N)=O)C(C)C)[C@@H](C)CC)[C@@H](C)O)[C@@H](C)O)[C@@H](C)CC)[C@@H](C)CC)C(C)C)[C@@H](C)CC)C(C)C)C(C)C [compound 300] (H-IVLSLDVPIGLLQKVIEIEKQEKEKQQATTNARILARV-NH2; N-terminus assumed) | 100% | 7.95% | – | –
NDDPPISIDLPTYLLRNMIEMARIENEREQAGLNAKYLAEV-NH2 [compound 266] | 19.4% | 4.45% | – | –
CC[C@H](C)[C@H](N)C(=O)N[C@H](C(=O)N[C@@H](CC(C)C)C(=O)N[C@@H](CO)C(=O)N[C@@H](CC(C)C)C(=O)N[C@@H](CC(=O)O)C(=O)N[C@H](C(=O)N1CCC[C@H]1C(=O)N[C@H](C(=O)NCC(=O)N[C@@H](CC(C)C)C(=O)N[C@@H](CC(C)C)C(=O)N[C@@H](CCC(N)=O)C(=O)N[C@H](C(=O)N[C@@H](CC(C)C)C(=O)N[C@@H](CC(C)C)C(=O)N[C@@H](CCC(=O)O)C(=O)N[C@@H](CCC(N)=O)C(=O)N[C@@H](C)C(=O)N[C@@H](CCCNC(=N)N)C(=O)N[C@@H](C)C(=O)N[C@@H](CCCNC(=N)N)C(=O)N[C@@H](C)C(=O)N[C@@H](C)C(=O)N[C@@H](CCCNC(=N)N)C(=O)N[C@@H](CCC(=O)O)C(=O)N[C@@H](CCC(N)=O)C(=O)N[C@@H](C)C(=O)N[C@H](C(=O)N[C@@H](CO)C(=O)N[C@@H](CC(N)=O)C(=O)N[C@@H](CCCNC(=N)N)C(=O)N[C@@H](CCCCN)C(=O)N[C@@H](CC(C)C)C(=O)N[C@@H](CCSC)C(=O)N[C@@H](CCC(=O)O)C(=O)N[C@H](C(=O)N[C@H](C(N)=O)[C@@H](C)CC)[C@@H](C)CC)[C@@H](C)O)[C@@H](C)CC)[C@@H](C)CC)C(C)C)C(C)C [compound 163] (H-IVLSLDVPIGLLQILLEQARARAAREQATSNRKLMEII-NH2; N-terminus assumed) | 96% | 13% | 4.49 nM | > 100 nM
